Assay: xn = mol fraction of the nth substance listed
Conditions: 101 kPa

CCCC[n+]1ccn(C)c1.O=[N+]([O-])[O-] + CCCCO
viscosity [mPa·s]
Conditions	x2 = 0.129	x2 = 0.26	x2 = 0.361	x2 = 0.456	x2 = 0.565	x2 = 0.65	x2 = 0.753	x2 = 0.848
283.15 K	232	125	75.5	–	29	19.86	11.42	7.82
288.15 K	170.6	–	58.8	38.34	–	16.11	9.74	6.78
293.15 K	126.9	68.4	46.54	31.1	–	13.67	8.41	–
298.15 K	–	53.94	37.64	–	–	11.74	7.28	5.12
303.15 K	70.8	–	30.76	21.48	–	10.17	6.35	4.52
308.15 K	–	–	25.6	18.23	12.37	–	–	3.98
313.15 K	45.28	29.24	–	15.59	–	–	–	3.56
318.15 K	37.11	–	18.41	13.52	–	6.94	4.38	3.19
323.15 K	30.72	20.83	–	11.81	8.33	6.15	–	2.87
328.15 K	25.86	17.89	13.75	10.37	7.37	5.52	3.5	2.6
333.15 K	21.95	15.46	–	9.18	–	4.93	3.17	2.37

CCCC[n+]1ccn(C)c1.O=[N+]([O-])[O-] + CCCO
viscosity [mPa·s]
Conditions	x2 = 0.121	x2 = 0.257	x2 = 0.364	x2 = 0.471	x2 = 0.554	x2 = 0.673	x2 = 0.755	x2 = 0.857
283.15 K	243	125.8	72.5	42.71	27.88	15.61	10.26	6.16
288.15 K	–	95.7	56.76	–	23	13.2	8.83	5.29
293.15 K	130.9	68.2	45.1	28.35	19.19	–	7.6	4.64
298.15 K	99.8	53.67	36.43	23.48	16.29	–	6.56	4.05
303.15 K	74	43.04	29.92	19.71	13.94	8.54	5.77	3.59
308.15 K	58.48	35.02	24.93	–	12.03	7.43	5.04	3.21
313.15 K	47.07	28.93	–	14.44	10.5	6.49	4.49	2.87
318.15 K	38.59	24.21	17.89	–	–	5.78	3.97	2.59
323.15 K	–	20.58	15.41	–	8.16	5.09	3.58	2.35
328.15 K	26.75	17.65	13.41	–	7.2	4.58	–	–
333.15 K	22.73	15.31	11.77	8.61	–	4.14	2.94	1.96

CCCC[n+]1ccn(C)c1.O=[N+]([O-])[O-] + CCO
viscosity [mPa·s]
Conditions	x2 = 0.11	x2 = 0.254	x2 = 0.352	x2 = 0.447	x2 = 0.556	x2 = 0.663	x2 = 0.748	x2 = 0.852
283.15 K	260	120.4	66	–	21.24	10.88	7.45	3.9
288.15 K	190	90.7	–	28.43	17.96	–	–	3.47
293.15 K	139.3	–	41.09	23.18	15.21	8.84	–	3.08
298.15 K	–	53.62	32.83	19.16	13.06	–	–	2.75
303.15 K	86.8	43.08	26.28	–	11.34	6.71	4.28	–
308.15 K	–	35.32	–	13.73	9.83	–	3.76	2.31
313.15 K	–	–	17.78	11.88	9.05	5	3.38	2.13
318.15 K	38.81	–	15.48	10.26	8.02	4.49	3.08	–
323.15 K	32.11	20.84	14.06	8.91	6.96	4.04	2.81	1.75
328.15 K	26.9	17.9	12.51	–	6.08	3.7	2.57	1.65
333.15 K	22.91	–	10.88	7.7	5.49	3.39	2.38	1.59

Reference: a compilation of properties of binary mixtures (doi:10.1016/j.jct.2009.06.023)
